Values joined by “and” are separate entries in the source; they are usually repeats but may differ in a detail not shown here. Identical values can stand only once. “Also recorded” adds a separate entry of the source. Like-named read-outs stand apart in the source and are kept apart here. Some results are limits rather than exact numbers.

Broadly, the IC50 is the point on the concentration scale where inhibition reaches its midpoint.

In experiment [1] the target is T1, SARS-CoV-2 M^pro (Severe acute respiratory syndrome coronavirus 2, UniProt P0DTD1). The experiment is described as follows: SPE-MS M^pro inhibition assay. Format: biochemical. The following applies: for increase in M^pro inhibition potency compared to (S)-sulfoxide 22: ratio of IC50 values.
In experiment [2] the target is T1, SARS-CoV-2 M^pro. The experiment is classed as binding. Particulars: for covalent reaction with / modification of M^pro / species with mass shifts corresponding to potential acyl–enzyme complexes: β-lactam 15 μM; for covalent reaction with / modification of M^pro: M^pro 3.0 μM (5 : 1), denaturing MS, 20 mM HEPES pH 7.5; for covalent reaction with / modification of M^pro / mass shift of concentration-dependent M^pro adduct / species with mass shifts corresponding to potential acyl–enzyme complexes: >15 h incubation; for mass shift of concentration-dependent M^pro adduct: intensity rises with penicillin derivative : M^pro ratio; for species with mass shifts corresponding to potential acyl–enzyme complexes: M^pro 3.0 μM.

Experiment [3] deals with human leukocyte elastase (HLE). Details: method as in doi:10.1016/S0960-894X(01)80940-9. Particulars: cited from earlier work.
Experiment [4] addresses T1, SARS-CoV-2 M^pro. The following applies: read-out: IC50 (reported) (converted), cited from earlier work.
[5] abbreviates: SPE-MS, M^pro 0.05 μM, substrate 2.0 μM, n = 3, mean ± SD, freshly prepared DMSO stocks for 8, read-out: IC50.
Where [6] appears, read: SPE-MS, M^pro 0.05 μM, substrate 2.0 μM, n = 3, mean ± SD, freshly prepared DMSO stocks for 8.
Setting [7] is: IC50, SPE-MS, M^pro 0.05 μM, substrate 2.0 μM, n = 3, mean ± SD, freshly prepared DMSO stocks for 8.
Where [8] appears, read: literature value given in Table 1.

Regarding `CCO[C@@]1(NC(=O)COc2ccccc2)C(=O)N2[C@@H](C(=O)OCc3ccccc3)C(C)(C)S(=O)(=O)[C@@H]21` [10a], the IC50 on SARS-CoV-2 M^pro [1] (setting [5]) was 5.8 ± 1.9 µM.

Regarding `CC1(C)S[C@H]2N(C(=O)[C@]2(NC(=O)COc2ccccc2)OCc2ccccc2)[C@H]1C(=O)OCc1ccccc1` [16c], the IC50 result was “inactive” against SARS-CoV-2 M^pro [1] (setting [6]) and over 50 µM on SARS-CoV-2 M^pro [1] (setting [5]).

`CO[C@H]1C(=O)N2[C@@H]1SC(C)(C)[C@@H]2C(=O)OCc1ccccc1` [26a]: at SARS-CoV-2 M^pro [1] (setting [5]), the IC50 turned out to be 1.2 ± 0.1 µM. Further, the “covalent reaction with / modification of M^pro” value on SARS-CoV-2 M^pro [2] is recorded as “in no case were substantial amounts of species corresponding to covalent modification observed; also recorded: did not evidence covalent modification”.

As to `CCO[C@H]1C(=O)N2[C@@H]1SC(C)(C)[C@@H]2C(=O)OCc1ccccc1` [26b], the IC50 on SARS-CoV-2 M^pro [1] (setting [5]) was 0.8 ± 0.1 µM.

Consider `CC(C)O[C@H]1C(=O)N2[C@@H]1SC(C)(C)[C@@H]2C(=O)OCc1ccccc1` [26c], for which the IC50 on SARS-CoV-2 M^pro [1] (setting [5]) amounted to 47 ± 13 µM.

In the case of `CC(C)(C)O[C@H]1C(=O)N2[C@@H]1SC(C)(C)[C@@H]2C(=O)OCc1ccccc1` [26d], the IC50 at SARS-CoV-2 M^pro [1] (setting [5]) came to 39 ± 9 µM.

For the compound `CC1(C)SC2C(Oc3ccccc3)C(=O)N2C1C(=O)OCc1ccccc1` (stereo not shown) [26e], the half-inhibitory concentration (IC50) at SARS-CoV-2 M^pro [1] (setting [5]) is over 50 µM.

On to `CC1(C)SC2C(OCc3ccccc3)C(=O)N2C1C(=O)OCc1ccccc1` (stereo not shown) [26f], for which the concentration for half-maximal inhibition (IC50) on SARS-CoV-2 M^pro [1] (setting [5]) was determined as 7.3 ± 1.4 µM.

Consider `CO[C@H]1C(=O)N2[C@@H](C(=O)OCc3ccccc3)C(C)(C)S(=O)(=O)[C@H]12` [27a], for which, at SARS-CoV-2 M^pro [1] (setting [7]), it took 7.7 ± 4.9 µM to reach half-maximal inhibition (IC50). Besides, the “covalent reaction with / modification of M^pro” value at SARS-CoV-2 M^pro [2] is given as “in no case were substantial amounts of species corresponding to covalent modification observed; also recorded: did not evidence covalent modification”.

`CCO[C@H]1C(=O)N2[C@@H](C(=O)OCc3ccccc3)C(C)(C)S(=O)(=O)[C@H]12` [27b]: the IC50 at SARS-CoV-2 M^pro [1] (setting [5]) was 44 ± 4 µM. Also, the “inhibition of HLE” value in experiment [3] was “covalent inhibitors”.

`CC(C)O[C@H]1C(=O)N2[C@@H](C(=O)OCc3ccccc3)C(C)(C)S(=O)(=O)[C@H]12` [27c]: the IC50 on SARS-CoV-2 M^pro [1] (setting [5]) worked out at 19 ± 14 µM.

For the compound `CC(C)(C)O[C@H]1C(=O)N2[C@@H](C(=O)OCc3ccccc3)C(C)(C)S(=O)(=O)[C@H]12` [27d], the IC50 at SARS-CoV-2 M^pro [1] (setting [5]) worked out at 21 ± 3 µM.

Regarding `CC1(C)C(C(=O)OCc2ccccc2)N2C(=O)C(Oc3ccccc3)C2S1(=O)=O` (stereo not shown) [27e], the IC50 at SARS-CoV-2 M^pro [1] (setting [5]) is over 50 µM.

In the case of `CC1(C)C(C(=O)OCc2ccccc2)N2C(=O)C(OCc3ccccc3)C2S1(=O)=O` (stereo not shown) [27f], on SARS-CoV-2 M^pro [1] (setting [5]), the IC50 came out at 35 ± 2 µM. The “inhibition of HLE” value in experiment [3] was “covalent inhibitors”.

Consider `CC1(C)[C@H](C(=O)OCc2ccccc2)N2C(=O)[C@](NC(=O)COc3ccccc3)(O[C@@H]3CCNC3=O)[C@H]2S1(=O)=O` [C00006], for which, on SARS-CoV-2 M^pro [1] (setting [5]), the IC50 was 5.3 ± 1.6 µM.

With `CC1(C)[C@H](C(=O)OCc2ccccc2)N2C(=O)[C@](NC(=O)COc3ccccc3)(OCc3ccccc3)[C@H]2S1(=O)=O` [C00008], the IC50 at SARS-CoV-2 M^pro [1] (setting [5]) came out at 8.3 ± 2.6 µM.

Regarding `CC1(C)S[C@@H]2[C@H](NC(=O)Cc3ccccc3)C(=O)N2[C@H]1C(=O)O` [C00011, reference compound], the IC50 on SARS-CoV-2 M^pro [1] (setting [7]) and on SARS-CoV-2 M^pro [4] (literature value in Table 2) was over 50 µM in each case.

For `CC1(C)[C@H](C(=O)OCc2ccccc2)N2C(=O)[C@@H](NC(=O)COc3ccccc3)[C@H]2S1(=O)=O` [compound 1, penicillin V sulfone benzyl ester], the IC50 at SARS-CoV-2 M^pro [1] (setting [5]) is 2.9 ± 0.4 µM; on SARS-CoV-2 M^pro [4] (setting [8]), about 6.6 µM.

`COC1(NC(=O)Cc2ccccc2)C(=O)N2C1[S+]([O-])C(C)(C)C2C(=O)OCc1ccc([N+](=O)[O-])cc1` (stereo not shown) [compound 2]: the IC50 on SARS-CoV-2 M^pro [1] (setting [5]) was 0.5 ± 0.1 µM; on SARS-CoV-2 M^pro [4] (literature value in Table 2), about 3.5 µM. For the same compound, the “increase in M^pro inhibition potency compared to (S)-sulfoxide 22” value on SARS-CoV-2 M^pro [1] was about 9 fold. The “mass shift of M^pro adduct” value at SARS-CoV-2 M^pro [2] (5 : 1 inhibitor : M^pro, after 45 min, low levels) is “+32 Da”; on SARS-CoV-2 M^pro [2] (5 : 1 inhibitor : M^pro, formed within 15 min, increasing intensity), “+498 Da”; on SARS-CoV-2 M^pro [2] (5 : 1 inhibitor : M^pro, t = 0 min / initial, weak intensity), “+515 Da”; on SARS-CoV-2 M^pro [2] (10:1 inhibitor : M^pro, after 45 min, low intensity), “+32 Da”; on SARS-CoV-2 M^pro [2] (10:1 inhibitor : M^pro, increasing intensity over 45 min), “+498 Da”; on SARS-CoV-2 M^pro [2] (10:1 inhibitor : M^pro, initial formation), “+515 Da”. At SARS-CoV-2 M^pro [2], the “mass shift of concentration-dependent M^pro adduct” value is recorded as “+32 Da”. For the same compound, on SARS-CoV-2 M^pro [2], the “covalent reaction with / modification of M^pro” value is given as “in no case were substantial amounts of species corresponding to covalent modification observed”. Moreover, the “species with mass shifts corresponding to potential acyl–enzyme complexes” value on SARS-CoV-2 M^pro [2] is reported as “low levels”.

`CO[C@@]1(NC(=O)Cc2ccccc2)C(=O)N2[C@@H](C(=O)OCc3ccccc3)C(C)(C)[S@@+]([O-])[C@@H]21` [compound 3, C6-methoxy (R)-sulfoxide penicillin G benzyl ester]: the IC50 on SARS-CoV-2 M^pro [1] (setting [5]) was ~0.8 µM and 0.8 µM. Further, the “increase in M^pro inhibition potency compared to (S)-sulfoxide 22” value on SARS-CoV-2 M^pro [1] is given as about 9 fold. Further, at SARS-CoV-2 M^pro [2], the “mass shift of concentration-dependent M^pro adduct” value is “+32 Da”, the “covalent reaction with / modification of M^pro” value was “in no case were substantial amounts of species corresponding to covalent modification observed” and the “species with mass shifts corresponding to potential acyl–enzyme complexes” value is on record as “low levels”.

As for `CC1(C)S[C@@H]2[C@H](NC(=O)COc3ccccc3)C(=O)N2[C@H]1C(=O)OCc1ccccc1` [compound 5], the IC50 is over 50 µM at SARS-CoV-2 M^pro [1] (setting [7]), “no inhibition in the tested concentration range” against SARS-CoV-2 M^pro [1] (setting [6]) and over 50 µM at SARS-CoV-2 M^pro [4] (setting [8]).

For the compound `CC1(C)C(C(=O)OCc2ccccc2)N2C(=O)C(NC(=O)COc3ccccc3)C2[S+]1[O-]` (stereo not shown) [compound 6], the results for the IC50 at SARS-CoV-2 M^pro [1] (setting [5]) and on SARS-CoV-2 M^pro [4] (setting [8]) were 6.3 ± 1 µM and about 23 µM, respectively.

For `COC1(NC(=O)COc2ccccc2)C(=O)N2C1[S+]([O-])C(C)(C)C2C(=O)OCc1ccccc1` (stereo not shown) [compound 7], on SARS-CoV-2 M^pro [1] (setting [5]), the IC50 is ~2.3 µM and 2.3 µM. Besides, the “covalent reaction with / modification of M^pro” value on SARS-CoV-2 M^pro [2] is on record as “in no case were substantial amounts of species corresponding to covalent modification observed; also recorded: low levels of reaction”.

With `CO[C@@]1(NC(=O)COc2ccccc2)C(=O)N2[C@@H](C(=O)OCc3ccccc3)C(C)(C)S[C@@H]21` [compound 8], the IC50 entry against SARS-CoV-2 M^pro [1] (setting [6]) is “no inhibition in the tested concentration range”; on SARS-CoV-2 M^pro [1] (setting [5]) it was over 50 µM; at SARS-CoV-2 M^pro [1] (additional replicates using premade DMSO stock solutions, read-out: IC50) it was about 5 µM.

As to `CO[C@@]1(NC(=O)COc2ccccc2)C(=O)N2[C@@H](C(=O)OCc3ccccc3)C(C)(C)S(=O)(=O)[C@@H]21` [compound 9], the results for the IC50 entry against SARS-CoV-2 M^pro [1] (setting [6]) and at SARS-CoV-2 M^pro [1] (setting [5]) were “inactive” and over 50 µM, respectively. Also, the “covalent reaction with / modification of M^pro” value on SARS-CoV-2 M^pro [2] is listed as “in no case were substantial amounts of species corresponding to covalent modification observed”.

For the compound `CC1(C)S[C@@H]2[C@H](NC(=O)Cc3ccccc3)C(=O)N2[C@H]1C(=O)OCc1ccccc1` [compound 18], the IC50 at SARS-CoV-2 M^pro [1] (setting [5]) was over 50 µM.

In the case of `CC1(C)[C@H](C(=O)OCc2ccccc2)N2C(=O)[C@@H](NC(=O)Cc3ccccc3)[C@H]2S1(=O)=O` [compound 19], the IC50 at SARS-CoV-2 M^pro [1] (setting [5]) was over 50 µM.

Take `CO[C@@]1(NC(=O)Cc2ccccc2)C(=O)N2[C@@H](C(=O)OCc3ccccc3)C(C)(C)S(=O)(=O)[C@@H]21` [compound 20]: the IC50 on SARS-CoV-2 M^pro [1] (setting [5]) was 11 ± 4 µM.

For `CC1(C)C(C(=O)OCc2ccccc2)N2C(=O)C(NC(=O)Cc3ccccc3)C2[S+]1[O-]` (stereo not shown) [compound 21], at SARS-CoV-2 M^pro [1] (setting [5]), the IC50 is over 50 µM.

Regarding `CO[C@@]1(NC(=O)Cc2ccccc2)C(=O)N2[C@@H](C(=O)OCc3ccccc3)C(C)(C)[S+]([O-])[C@@H]21` (stereo partly shown) [compound 22], at SARS-CoV-2 M^pro [1] (setting [5]), the IC50 was ~7.3 µM and 7.3 µM. In addition, the “covalent reaction with / modification of M^pro” value at SARS-CoV-2 M^pro [2] is given as “no evidence for covalent M^pro modification”.

With `CC1(C)[C@H](C(=O)OCc2ccccc2)N2C(=O)[C@@H](NC(=O)Cc3ccccc3)[C@H]2[S@+]1[O-]` [compound 23], on SARS-CoV-2 M^pro [1] (setting [5]), the half-maximal inhibitory concentration (IC50) is over 50 µM.

As for `CO[C@@]1(NC(=O)Cc2ccccc2)C(=O)N2[C@@H](C(=O)O)C(C)(C)S[C@@H]21` [compound 24, C6-methoxypenicillin G acid], the IC50 on SARS-CoV-2 M^pro [1] (moderate inhibition potency observed in some cases (variable values, possible instability in DMSO), read-out: IC50) turned out to be 15 ± 8 µM.

Consider `CO[C@@]1(NC(=O)Cc2ccccc2)C(=O)N2[C@@H](C(=O)OCc3ccccc3)C(C)(C)S[C@@H]21` [compound 25], for which the IC50 at SARS-CoV-2 M^pro [1] (setting [5]) came to 11 ± 6 µM.

These data come from paper PMC12588090, “C6-Alkoxy substituted penicillins are potent non-covalently binding inhibitors of the SARS-CoV-2 main protease” (RSC Medicinal Chemistry, 2025).
